Data on six compounds can be found in article PMC12264554, “Application of preclinical absorption, distribution, metabolism, elimination in vitro techniques for the characterization and compound library optimization of novel antibiotic gallium salophen” (Drug Metabolism and Disposition, 2025).

The nature of data set [1]: RBC/PL partitioning equilibrium in whole blood. As to conditions: for ICP-MS calculated KRBC/PL / LC-MS/MS calculated KRBC/PL: sodium heparin whole blood, 6 selectivity lots; for KRBC/PL: K2EDTA whole blood. On the procedure: The mixtures were digested at 80 °C for 4 hours and further diluted to a concentration of 6% nitric acid. Gallium (Ga^71) in whole blood, PL, and RBC samples were quantified using an Agilent 7700x ICP-MS instrument (Agilent Technologies). Metal levels were detected using an Octopole Reaction System in He mode. Other ICP-MS parameters include an radio frequency power of 1500 W, on octupole radio frequency of 190 V, an octapole bias of –18 V, a helium gas flow of 4.3 mL/min, and an argon flow of 0.99 L/min. Samples were loaded through a 7700X peristaltic (with a speed of 0.1 rps) and a MicroMist nebulizer. A standard calibration curve was used to derive metal concentrations. The calibration standards from 0–250 ppb were prepared in 6% nitric acid using atomic absorption standards (Sigma). Data analysis and extraction were performed using Agilent’s MassHunter software version 5.1, specifically version D.01.01.
All LC-MS/MS grade solvents were purchased from ThermoFisher. Ammonium bicarbonate was purchased from Sigma Aldrich. Analysis was performed on a Waters I-Class ultra-performance liquid chromatography system connected with a Waters Xevo TQ-XS mass spectrometer. Ten millimolar ammonium bicarbonate, pH 9.4 was used for mobile phase A, and 100% methanol was used for mobile phase B. The column flow rate was set at 0.400 mL/min. Chromatographic separation was performed with a BEH C18 (2.1 × 50 mm, 1.7 μm) column (Waters). […] The total run time was 4 minutes. The column temperature was set to 60 °C, and the autosampler temperature was set to 15 °C. Washing parameters were 800 μL of weak needle wash (acetonitrile [ACN]:Water/50:50) and 1000 μL of strong needle wash (methanol:ACN:2-propanol:formic acid/30:30:40:0.5) after every injection. Transitions used to monitor all drugs in the study are shown in Supplemental Table 1.
Whole blood (either potassium EDTA [K2EDTA] or sodium heparin) was preincubated at 37 °C for 30 minutes before spiking with the analyte. GaSal-5 was made at a stock concentration of 100 μg/mL in water and then spiked at a high concentration (1 μg/mL) and low concentration (100 ng/mL) to determine whether equilibrium was concentration dependent. Samples were then aliquoted and stored in a water bath at 37 °C for 1, 2, 3, 4, and 8 hours or harvested immediately. PL was harvested from samples by centrifuging at 3000 rpm at 4 °C for 10 minutes. PL was transferred to a new tube and considered the PL fraction, whereas the rest of the matrix was considered the RBC fraction. Samples were then either analyzed by LC-MS/MS or ICP-MS. […] For selectivity lot analysis, whole blood from 3 male and 3 female donors were incubated for 2 hours and then analyzed with LC-MS/MS and ICP-MS at a single concentration of 1 μg/mL. Data are presented as average ± SEM, n = 3 per sample, per concentration. Significance was determined by using a paired t test for ICP-MS and LC-MS/MS data (the same sample, different method) or a 2-tailed Student’s t test for different anticoagulants.

Data set [2] in a line: Experimental LogP by reverse-phase HPLC method. Format: physicochemical. As to conditions: extrapolated log kw. The text has this: LogP was experimentally determined using previously published reverse-phase high-performance liquid chromatography method, and this workflow was adapted using instrumentation described in the previous LC-MS/MS analysis section ([Coutinho et al, 2023]). Briefly, analogs were eluted using isocratic flow with an increasing percentage of organic solvent from 55% to 90% in increments of 5%. The change in the log of the retention factor, log k, was plotted against the fraction of organic solvent. This allowed for extrapolation to the y-intercept, which is when the fraction of organic in the system is zero, or log kw. The same workflow was applied to known compounds with a published logP value to establish a relationship between logP and log kw. This ratio was used to calculate the experimental logP from the log kw of the test compounds. The in silico prediction of logP values was obtained using an online calculator by Molinspiration Cheminformatics (molinspiration.com).

For data set [3], the target named is HasA (Pseudomonas aeruginosa, UniProt G3XD33). The data set is described as follows: Kd determination by fluorescence quenching of apo-HasAp. As to conditions: read-out: HasA Kd; apo-HasAp 1 μM, 20 mM sodium phosphate pH 7.4, 25 °C, one-site binding fit. On the procedure:
Wild-type, full-length HasAp was prepared from freshly transformed Escherichia coli BL21(DE3) competent cells as previously described in 4 L of M9 media. Cell pellets were resuspended and lysed with an LM-20 microfluidizer at 18,000 psi. Lysate was clarified by centrifugation and applied to a Q-Sepharose column. HasAp was eluted over a gradient from 20 to 600 mM NaCl in 20 mM Tris-HCl (pH 7.5), and desired fractions determined by SDS-PAGE were pooled. Apo-HasAp was further purified on a Butyl Sepharose Fast Flow column equilibrated with 50 mM sodium phosphate buffer with 0.7 M ammonium sulfate (pH 7.0). Holo-HasAp and other proteins eluted within 2–3 bed volumes of 50 mM sodium phosphate containing 0.5 M ammonium sulfate. Apo-HasAp was then eluted with a linear gradient of sodium phosphate buffer (50–20 mM) containing ammonium sulfate (0.5–0 M). Fractions were analyzed again by SDS-PAGE, and the apo-HasAp was pooled, concentrated (Amicon stirred cell with Ultracel 10 kDa filter), and exchanged into 20 mM sodium phosphate buffer.
Binding affinities were determined using a BioTek Synergy H1 microplate reader in a black 96-well plate. Compounds were solvated in H2O in serial dilutions (100–0.39 μM). One micromolar solution of apo-HasAp 20 mM sodium phosphate buffer (pH 7.4, 25 °C) was titrated into the ligand of interest. Emission spectra were recorded (300–500 nm) after excitation at 280 nm. The decrease in maximum emission was plotted against the ligand concentration (accounting for dilution) and fit to one-site binding using GraphPad Prism v10.

[4] abbreviates: 0.1 μg/mL, pooled K2EDTA whole blood, 2 hours, LC-MS/MS (ICP-MS for Ga^3+).
Setting [5] is: 0.1 μg/mL, pooled sodium heparin whole blood, 2 hours, LC-MS/MS (ICP-MS for Ga^3+).
Setting [6] is: 1 μg/mL, pooled K2EDTA whole blood, 2 hours, LC-MS/MS (ICP-MS for Ga^3+).
Setting [7] is: 1 μg/mL, pooled sodium heparin whole blood, 2 hours, LC-MS/MS (ICP-MS for Ga^3+).
The mark [8] stands for this setting: 1 μg/mL, selectivity lots n = 6, LC-MS/MS.
Setting [9] is: 1 μg/mL, selectivity lots n = 6, LC-MS/MS (also in Table 4).

Sequence of HasA (G3XD33 entry or part of it): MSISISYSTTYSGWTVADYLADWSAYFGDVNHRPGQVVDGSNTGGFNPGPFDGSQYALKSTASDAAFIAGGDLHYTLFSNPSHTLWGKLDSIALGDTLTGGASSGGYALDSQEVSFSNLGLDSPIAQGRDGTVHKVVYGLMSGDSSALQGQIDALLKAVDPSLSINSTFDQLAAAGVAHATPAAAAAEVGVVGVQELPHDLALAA

What is called logP is a log measure of how a compound divides between an organic and an aqueous phase. One may read the Kd as the constant that tells how readily two partners part at equilibrium. On to `COCCOc1ccc(/C=N/c2ccccc2N=C(C)c2ccccc2O)c(O)c1.[Ga+3]` [GaSal-14], for which the “K2EDTA KRBC/PL” value in data set [1] (setting [4]) is on record as 0.69 ± 0.10; in data set [1] (setting [6]), 1.65 ± 0.18; in data set [1] (setting [8]), 0.08 ± 0.01. Also, the “Heparin KRBC/PL” value was 0.55 ± 0.07 in data set [1] (setting [5]), 1.86 ± 0.36 in data set [1] (setting [7]) and 0.33 ± 0.04 in data set [1] (setting [9]). Moreover, the “ICP-MS calculated KRBC/PL” value in data set [1] (1 μg/mL, 2 hours) was 0.34 ± 0.02. For the same compound, the “LC-MS/MS calculated KRBC/PL” value in data set [1] (1 μg/mL, 2 hours) was 0.33 ± 0.04. In addition, the logP in data set [2] was 3.31. The Kd in data set [3] was 2.84 ± 0.12 µM.

In the case of `COCCOc1ccc(/C=N/c2ccccc2/N=C/c2ccc(OCCOC)cc2O)c(O)c1.[Ga+3]` [GaSal-13], the results for the “K2EDTA KRBC/PL” value in data set [1] (setting [4]) and in data set [1] (setting [6]) were 0.55 ± 0.35 and 0.08 ± 0.04, respectively. The “Heparin KRBC/PL” value in data set [1] (setting [5]) worked out at 0.47 ± 0.22; in data set [1] (setting [7]), 0.59 ± 0.18. For the same compound, the “ICP-MS calculated KRBC/PL” value in data set [1] (1 μg/mL, 2 hours) is reported as 0.48 ± 0.04. In addition, the “LC-MS/MS calculated KRBC/PL” value in data set [1] (1 μg/mL, 2 hours) is reported as 0.42 ± 0.03. The logP in data set [2] is 3.65. In data set [3], the Kd was determined as 0.96 ± 0.14 µM.

Turning to `Oc1ccccc1/C=N/c1ccccc1/N=C/c1ccccc1O.[Ga+3]` [GaSal, gallium salophen], the results for the “K2EDTA KRBC/PL” value in data set [1] (setting [4]), in data set [1] (setting [6]) and in data set [1] (setting [8]) were 0.22 ± 0.02, 0.26 ± 0.03 and 0.58 ± 0.02, respectively. In addition, the “Heparin KRBC/PL” value in data set [1] (setting [5]) is recorded as 0.61 ± 0.42; in data set [1] (setting [7]) it was 0.57 ± 0.19; in data set [1] (setting [9]), 0.45 ± 0.03. The “ICP-MS calculated KRBC/PL” value in data set [1] (1 μg/mL, 2 hours) was 0.89 ± 0.04. Also, the “LC-MS/MS calculated KRBC/PL” value in data set [1] (1 μg/mL, 2 hours) is 0.45 ± 0.03. Further, the log partition coefficient (logP) in data set [2] is 2.58. The dissociation constant Kd in data set [3] was 0.8 ± 0.1 µM.

On to `Oc1cc(OCCN2CCOCC2)ccc1C=Nc1ccccc1N=Cc1ccc(OCCN2CCOCC2)cc1O.[Ga+3]` [GaSal-3], for which the “K2EDTA KRBC/PL” value turned out to be 0.28 ± 0.08 in data set [1] (setting [4]) and 0.28 ± 0.04 in data set [1] (setting [6]). In addition, the “Heparin KRBC/PL” value is on record as 1.08 ± 0.28 in data set [1] (setting [5]) and 1.03 ± 0.24 in data set [1] (setting [7]). The lipophilicity (logP) in data set [2] is 3.87. Also, in data set [3], the Kd is 1.5 ± 0.3 µM.

For the compound `O=C(O)CCOc1ccc(C=Nc2ccccc2N=Cc2ccc(OCCC(=O)O)cc2O)c(O)c1.[Ga+3]` [GaSal-4], the “K2EDTA KRBC/PL” value in data set [1] (setting [4]) turned out to be 2288 ± 94; in data set [1] (setting [6]), 9220 ± 484. The results for the “Heparin KRBC/PL” value in data set [1] (setting [5]) and in data set [1] (setting [7]) were 3422 ± 435 and 8098 ± 1102, respectively. The logP in data set [2] is 3.33. Moreover, in data set [3], the Kd stood at 1.1 ± 0.1 µM.

For the compound `COCCOCCOc1ccc(C=Nc2ccccc2N=Cc2ccc(OCCOCCOC)cc2O)c(O)c1.[Ga+3]` [GaSal-5], the results for the “K2EDTA KRBC/PL” value in data set [1] (setting [4]) and in data set [1] (setting [8]) were 0.63 ± 0.36 and 0.16 ± 0.03, respectively. Also, the figures for the “Heparin KRBC/PL” value in data set [1] (setting [5]), in data set [1] (setting [7]) and in data set [1] (setting [9]) were 1.91 ± 0.57, 1.34 ± 0.17 and 0.56 ± 0.03, respectively. The “ICP-MS calculated KRBC/PL” value in data set [1] (1 μg/mL, 2 hours) is recorded as 0.36 ± 0.03. The “LC-MS/MS calculated KRBC/PL” value in data set [1] (1 μg/mL, 2 hours) is on record as 0.56 ± 0.03. Also, the KRBC/PL is 0.572 ± 0.008 in data set [1] (2 hours, ICP-MS, HQC (1 μg/mL)); 0.632 ± 0.080 in data set [1] (2 hours, ICP-MS, LQC (100 ng/mL)); 0.043 ± 0.017 in data set [1] (2 hours, LC-MS/MS, HQC (1 μg/mL)); 0.070 ± 0.007 in data set [1] (2 hours, LC-MS/MS, LQC (100 ng/mL)). For the same compound, the logP in data set [2] was 3.95. Moreover, the equilibrium dissociation constant (Kd) in data set [3] worked out at 2.5 ± 1.2 µM.
